Consider three compounds from patent publication US10463735B2, “Method and apparatus for adjusting corneal curvature through digital corneal crosslinking” (ZHEJIANG UNIVERSITY, priority 2016, dated 2019).

The test concerns cornea. Briefly: Digital corneal crosslinking: photoinitiator solution dropped on the cornea, then selective local irradiation through a digital micromirror device. The format is in vivo. As to the method:
A digital corneal crosslinking method to adjust the corneal curvature wherein a composition comprising a photoinitiator compound is administered to the corneal stromal of the subject, and the corneal is selectively and locally irradiated by utilizing digital micromirror device (DMD) controlled by a computer, whereby the corneal curvature is altered.
The epithelial tissue of an area of 7 mm diameter in the middle of the cornea was removed after superficial anesthesia. A dextran solution of 200 g/L with 1 g/L riboflavin was dropped to corneal surface in batches. The location of the riboflavin diffused into the corneal surface was observed by cobalt blue light of a slit lamp. Digital corneal crosslinking device was used to selectively irradiate the local area of the cornea. The light's wavelength is 365 nm, the irradiation area is shown in FIG. 2, the light power is 1.2 mW/cm^2, irradiation time is 5 minutes.
During irradiation process, a photoinitiator solution and superficial anesthesia were used to wash the corneal surface in phases. Antibiotic eye formulations were applied to the eye and corneal contact lens were used until the corneal epithelium was healed.
The epithelial tissue of an area of 7 mm diameter in the middle of the cornea was removed after superficial anesthesia. A dextran solution of 200 g/L with 1 g/L riboflavin sodium phosphate was dropped to corneal surface in batches. The location of the riboflavin diffused into the corneal surface was observed by cobalt blue light of a slit lamp. Digital corneal crosslinking device was used to selectively irradiate the local area of the cornea. The light's wavelength is 365 nm, the irradiation area is the same like that in example 1, the light power is 1.2 mW/cm^2, irradiation time is 5 minutes.
The epithelial tissue of an area of 5-9 mm diameter in the middle of the cornea was removed after superficial anesthesia. A dextran solution of 200 g/L with 1 g/L eosin Y was dropped to corneal surface in batches. The location of the eosin Y diffused into the corneal surface was observed by cobalt blue light of a slit lamp. Digital corneal crosslinking device was used to selectively irradiate the local area of the cornea. The light's wavelength is 550 nm, the irradiation area is shown in FIG. 3, the light power is 1.2 mW/cm^2, irradiation time is 5 minutes.
During irradiation process, the eosin Y solution and superficial anesthesia were used to wash the corneal surface in phases. Antibiotic eye formulations were applied to the eye and corneal contact lens were used until the corneal epithelium was healed.
The epithelial tissue of the cornea was removed and a dextran solution of 200 g/L with 1 g/L riboflavin was dropped to corneal surface in batches. The location of the riboflavin diffused into the corneal surface was observed by cobalt blue light of a slit lamp. Digital corneal crosslinking device was used to selectively irradiate the local area of the cornea. The light's wavelength is 365 nm, the irradiation area is shown in FIG. 4, the light power is 1.2 mW/cm^2, irradiation time is 5 minutes.
The epithelial tissue of the cornea was kept intact and a dextran solution of 200 g/L with 1.5 g/L EDTA sodium and 1.5 g/L riboflavin was dropped to corneal surface in batches. The location of the riboflavin diffused into the corneal surface was observed by cobalt blue light of a slit lamp. Digital corneal crosslinking device was used to selectively irradiate the local area of the cornea.

On to `O=C([O-])c1ccccc1-c1c2cc(Br)c(=O)c(Br)c-2oc2c(Br)c([O-])c(Br)cc12.[Na+].[Na+]` [eosin Y], for which the corneal surface curvature result (Example 3: epithelium removed (5-9 mm), dextran solution 200 g/L with 1 g/L eosin Y, 550 nm, irradiation area of FIG. 3, 1.2 mW/cm^2, 5 minutes) is given as “decreased”.

With `Cc1cc2nc3c(=O)[nH]c(=O)nc-3n(C[C@H](O)[C@H](O)[C@H](O)COP(=O)(O)O)c2cc1C` [riboflavin sodium phosphate], the corneal surface curvature result (Example 2: epithelium removed (7 mm), dextran solution 200 g/L with 1 g/L riboflavin sodium phosphate, 365 nm, irradiation area as example 1, 1.2 mW/cm^2, 5 minutes) is given as “the same as example 1”. Turning to `Cc1cc2nc3c(=O)[nH]c(=O)nc-3n(C[C@H](O)[C@H](O)[C@H](O)CO)c2cc1C` [riboflavin], the corneal surface curvature result (Example 1: epithelium removed (7 mm), dextran solution 200 g/L with 1 g/L riboflavin, 365 nm, irradiation area of FIG. 2, 1.2 mW/cm^2, 5 minutes) was “increased”. Also, under “Example 4: epithelium removed, dextran solution 200 g/L with 1 g/L riboflavin, 365 nm, irradiation area of FIG. 4, 1.2 mW/cm^2, 5 minutes”, the corneal curvature result is reported as “locally changed”. For the same compound, the “result (corneal surface curvature)” value (Example 5: epithelium kept intact, dextran solution 200 g/L with 1.5 g/L EDTA sodium and 1.5 g/L riboflavin, 365 nm, irradiation area as example 1, 1.2 mW/cm^2, 10 minutes) is “the same as example 1”.
